How the values were obtained:
GNAQ^Q209L = biological target: T1, GNAQ^Q209L (Homo sapiens, UniProt P50148, Q209L); test: IP1 accumulation assay in transiently transfected HEK293T cells; format: cell-based; details: 24-hour treatment
T1 construct: host or cells: melan-a (immortalized mouse melanocytes), retroviral transduction with MSCV-Puro
T1 sequence (P50148 1-359 Q209L): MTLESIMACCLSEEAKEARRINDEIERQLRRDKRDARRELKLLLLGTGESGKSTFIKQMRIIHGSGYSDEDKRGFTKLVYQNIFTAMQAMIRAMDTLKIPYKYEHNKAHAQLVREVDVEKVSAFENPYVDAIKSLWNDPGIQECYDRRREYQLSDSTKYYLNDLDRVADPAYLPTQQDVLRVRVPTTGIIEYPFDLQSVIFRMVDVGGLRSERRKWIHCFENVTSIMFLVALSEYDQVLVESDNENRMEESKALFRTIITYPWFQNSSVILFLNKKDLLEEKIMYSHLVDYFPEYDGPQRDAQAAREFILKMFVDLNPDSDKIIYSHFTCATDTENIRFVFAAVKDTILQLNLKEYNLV
Protocol: Cells were treated with YM at increasing doses for 24 hours. Error bars, s.e.m. from three biological replicates, each with three technical replicates.
Exogenous Gene Expression. HEK293T cells were transiently transfected to express vectors containing synthetic CYSLTR2 (Moore A R, et al., Nat Genet. 48(6):675 (2016)) and GNAQ. Genewiz was used to codon optimize these sequences for expression in mammalian cells. The human GNAQ α-subunit plasmids encoding for GNAQ mutants Q209L, R183Q and G48V were generated by Quick Change (Agilent Technologies, Santa Clara, Calif.) site-directed mutagenesis. HEK293T cells were transiently transfected with the plasmids encoding for GNAQ WT and mutants subcloned into pcDNA3.1(+) using Lipofectamine according to the manufacturer's instructions. Briefly, 9,000 HEK293T cells were transfected in low-volume 384-well plates with 11 ng of total DNA/well for 24 hours. Human cDNAs for WT CYSLTR2 and GNAQ were obtained from Origene and cloned into MSCV-Puro (Addgene plasmid #68469) for stable expression in melan-a cells via retroviral transduction with X-tremeGENE 9 (Sigma-Aldrich, St. Louis Mo.). Quikchange primers were used to introduce the various mutant constructs. All constructs were confirmed by sequencing. The primers used in the experiments described herein are provided below: […]
IP1 Accumulation Assay. IP1 concentrations in GNAQ-transfected HEK293T cells, GNAQ-expressing melan-a cells and uveal melanoma cells was measured using a competitive homogenous time resolved fluorescence (HTRF) assay (CisBio, Bedford, Mass.). Briefly, 9,000 transiently transfected-HEK293T cells, 5,000 melan-a cells and 5,000 uveal melanoma cells were seeded in low-volume 384-well plates in 7 μL media for 24 hours prior YM-254890 treatment. Cells were then treated with various concentrations of YM-254890 diluted in the appropriate media at 37° C. for 3 hours or 24 hours. […] Following incubation, cells were lysed by adding 3 μL/well of d2-labeled IP1 analogue as the fluorescence acceptor and the Terbium cryptate-labeled anti-IP1 mAb as the fluorescence donor, diluted in the kit-supplied lysis buffer. The plates were incubated overnight at RT and time-resolved fluorescence signals were read using the BioTek Synergy NEO plate reader (BioTek Instruments, Winooski, Vt.) at 620 nm and […]. Results were calculated as a 665 nm/620 nm signal ratio, and IP1 concentrations were interpolated from a standard curve prepared using the supplied IP1 calibrator. […] Dose-response curves and bar graphs were analyzed using GraphPad Prism 7.0 software. […]

[1] = system: GNAQ^Q209L-expressing melan-a cells; test: TPA-independent cell growth, CellTiter-glo 2.0; format: cell-based, mouse; details: 5 days
Protocol: (§1) Data are expressed as the percentage relative light units (RLU) relative to that observed with vehicle. Error bars, s.e.m. from triplicate samples.
(§2) Data are expressed as the percentage RLU relative to that observed with vehicle. Error bars, s.e.m. from triplicate samples.
(§3) Cell Culture and in vitro analysis. Mutation dependent melan-a cells were generated by transducing cells with cDNAs in MSCV-PURO (retrovirus) and then selecting cells with puromycin (1 μg/ml) for two days. TPA (Sigma-Aldrich, St. Louis, Mo.) was then withdrawn from cultures. Cells with activating mutations (CYSLTR2^L129Q, GNAQ^G48V/R183Q/Q209L, KRAS^G12V, and BRAF^V600E) continued to proliferate over several passages (>2 weeks) and were then validated with qRT-PCR and immunoblots. Vector and WT controls were unable to maintain proliferation after a couple passages upon TPA withdrawal. All cells were cultured in media containing 10% FBS, L-glutamine ([…]), penicillin (100 U/ml), streptomycin (100 μg/ml). Melan-a cells provided by D. Bennett, St. George's Hospital, University of London (Johnson C P, et al., PLoS One. 12(6):1-17 (2017)), were cultured in RPMI supplemented with 200 nM TPA unless otherwise noted. HEK293T (from ATCC, Manassas, Va.) cells were cultured in DMEM-Q and UVM cells were cultured in RPMI. All cells tested negative for mycoplasma. Cell growth assays and YM dose response curves were assayed using CellTiter-glo 2.0 (Promega, Madison, Wis.) at given time points or after five days of incubation with YM and readout on a Glomax Luminometer (Promega, Madison, Wis.). IC50 values were calculated using Prism 7.0 software. Growth assays were compared to day 1 readings and dose response curves were compared to vehicle. Data shown is representative of at least three independent experiments with at least three technical replicates. Dose-response curves and growth assays were analyzed using GraphPad Prism 7.0 software.

[2] = system: CYSLTR2^L129Q-expressing melan-a cells; test: TPA-independent cell growth, CellTiter-glo 2.0; format: cell-based, mouse; details: 5 days
Protocol: as §1, §2, §3

YM-254890
inhibition of signaling (IP1 accumulation) (GNAQ^Q209L): incompletely/poorly inhibited
relative sensitivity to YM (IP1 accumulation) (GNAQ^Q209L): most resistant
YM-mediated growth inhibition in the presence of TPA ([1]; with TPA): rescued
sensitivity of TPA-independent cell growth to YM ([1]; without TPA): modestly less sensitive
YM-mediated growth inhibition in the presence of TPA ([2]; with TPA): rescued
sensitivity of TPA-independent cell growth to YM ([2]; without TPA): sub-nanomolar sensitivity

Reference: patent US20210403864A1, “METHODS AND COMPOSITIONS FOR TREATING ACTIVATED G-ALPHA Q MUTANT CANCERS OR MELANOCYTIC MALIGNANCIES” (Memorial Sloan Kettering Cancer Center, priority 2018, published 2021)
